Laboratory results reported in patent publication US20130065834A1, “MODULATORS OF PROTEASOME ACTIVITY” (SALK INSTITUTE FOR BIOLOGICAL STUDIES, priority 2011, published 2013).
“Also recorded” adds a separate entry of the source. Residues, ends and D or L forms follow the SMILES beside them. *: point of attachment. Cbz = O=C(OCc1ccccc1)*

Legend:
[1] = molecular target: T1, chymotrypsin-like activity of the proteasome (Caenorhabditis elegans, UniProt Q9XUV0); test: 26S proteasome fluorogenic peptidase assay in worm lysate, chymotrypsin-like (Z-GGL-AMC / Suc-LLVY-AMC); format: biochemical, C. elegans; details: inhibitor 20 min prior to substrate, vs DMSO
T1 construct: worms were lysed in proteasome activity assay buffer; from tissue; host or cells: whole-worm lysate of adult C. elegans (N2, glp-1(e2141), fer-15;fem-1, daf-16;glp-1, rpn-6.1 OE and RNAi-fed strains)
T1 sequence (Q9XUV0 65-284): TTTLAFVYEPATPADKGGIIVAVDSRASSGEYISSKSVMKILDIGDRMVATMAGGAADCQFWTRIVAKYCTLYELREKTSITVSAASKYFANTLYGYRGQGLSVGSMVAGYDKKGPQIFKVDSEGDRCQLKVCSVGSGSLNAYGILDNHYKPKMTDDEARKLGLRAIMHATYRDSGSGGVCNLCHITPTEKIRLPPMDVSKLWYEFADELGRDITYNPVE
Description: (§1) 26S proteasome activity assays. In vitro 26S proteasome activity assays were performed as previously described [Finley, D. Recognition and processing of ubiquitin-protein conjugates by the proteasome. Annual review of biochemistry 78, 477-513 (2009)]. Worms were lysed in proteasome activity assay buffer (50 mM Tris-HCl pH 7.5, 250 mM sucrose, 5 mM MgCl2, 0.5 mM EDTA, 2 mM ATP and 1 mM dithiothreitol) using a Precellys 24 homogenizer (Bertin technologies). Lysate was centrifuged at 10,000 g for 15 min at 4° C. 25 μg of total protein lysate was transferred to a 96-well microtiter plate (BD Falcon) and incubated with fluorogenic substrate. Fluorescence (380-nm excitation, 460-nm emission) was monitored on a microplate fluorometer (Infinite M1000, Tecan) every 5 min for 1 h at 25° C.
(§2) 26S proteasome fluorogenic peptidase assays. […] Methods in enzymology 398, 364-378 (2005)]. Briefly, worms were lysed in proteasome activity assay buffer (50 mM Tris-HCl pH 7.5, 250 mM sucrose, 5 mM MgCl2, 0.5 mM EDTA, 2 mM ATP and 1 mM dithiothreitol) using a Precellys 24 homogenizer (Bertin technologies). Lysate was centrifuged at 10,000 g for 15 min at 4° C. For each experiment, 25 μg of total protein lysate was transferred to a 96-well microtiter plate (BD Falcon) then fluorogenic substrate was added. For measuring the chymotrypsin-like activity of the proteasome either Z-Gly-Gly-Leu-AMC (Enzo) or Suc-Leu-Leu-Val-Tyr-AMC (Enzo) was used. Z-Leu-Leu-Glu-AMC (Enzo) was used to measure the caspase-like activity of the proteasome and Ac-Arg-Leu-Arg-AMC for the proteasome trypsin-like activity. Fluorescence (380-nm excitation, 460-nm emission) was monitored on a microplate fluorometer (Infinite M1000, Tecan) every 5 min for 1 h at 25° C.

H9 hESCs = test: quantitative RT-PCR in H9 hESCs; format: cell-based, human; details: 62.5 nM 24 h, relative to DMSO
Description: Lentiviral infection of human stem cells. hESC colonies growing on Matrigel were incubated with mTesR1 medium containing 10 μM ROCK inhibitor (Y-27632) for one hApplicants' and individualized using Accutase 1×. 5×10^5 cells were infected in suspension with 10 μl of concentrated lentivirus in the presence of 10 μM ROCK inhibitor. Cell suspension was centrifuged to remove virus, passed through a mesh of […] to obtain individual cells and plated back on a feeder layer of fresh MEFs in hESC cell media supplemented with 10 μM ROCK inhibitor. After a few days in culture, small hES cell colonies arose. For LV-GFP and LV-shFOXOs stable lines, GFP positive colonies were selected and manually passaged onto fresh MEFs to establish new hESC cell lines. For LV-non-targeting shRNA, shPSMD11, shPSMC2, FOXO4 OE, FOXO4 AAA OE and PSMD11 OE stable lines, Applicants performed 1 μg/ml puromycin resistance selection during 3 days and then colonies were manually passaged onto fresh MEFs to establish new hESC cell lines. […]
RNA isolation and quantitative RT-PCR. Total RNA was extracted using RNAbee (Tel-Test Inc). cDNA was created using the Quantitect Reverse Transcriptase kit (Qiagen). […] Data was analyzed with the comparative 2ΔΔCt method using β-actin and GAPDH as housekeeping genes. […]

hESCs = test: MG-132 treatment of cultured cells, cell death and detachment; format: cell-based, human; details: hESCs vs NPCs or neurons; data not shown
[2] = test system: polyubiquitinylated proteins, proteasome subunits, transcription factors; test: Western blot of human cell extracts; format: cell-based; details: H9 hESCs; 62.5 nM 24 h
Description: Western Blot. For analysis of proteasome subunits, cells were collected in proteasome activity assay buffer supplemented with protease inhibitors (Roche) and lysed by passing 10 times through a 27 gauge needle attached to a 1 ml syringe. Lysate was centrifuged at 10,000 g for 10 min at 4° C. Protein concentration of the cell homogenates was determined using the BCA protein assay (Pierce). For analysis of transcription factor and polyubiquitinylated proteins, cells were harvested from tissue culture plates by cell scraping and lysed in protein cell lysis buffer (10 mM Tris-Cl pH7.4, 10 mM EDTA, 50 mM NaCl, 50 mM NaF, 1% Triton X-100, 0.1% SDS supplemented with 2 mM sodium orthovanadate, 1 mM PMSF and Complete Mini Protease and PhosSTOP inhibitor cocktail mix) for 2 hrs at 1,000 rpm and 4° C. in a Thermomixer. Protein concentrations were determined with a standard Bradford protein assay (BioRad). 20-50 μg of total protein were separated by SDS-PAGE, transferred to nitrocellulose membranes (Whatman) and subjected to immunoblotting. […]

[3] = molecular target: T2, chymotrypsin-like activity of the proteasome (Homo sapiens, UniProt P28074); test: 26S proteasome fluorogenic peptidase assay in human cell extracts, chymotrypsin-like; format: biochemical; details: H9 hESCs; 62.5 nM for 24 hours; vs DMSO
T2 construct: 15-25 μg of total protein of cell lysates were transferred to a 96-well microtiter plate; endogenous in cells; host or cells: H9 and HUES-6 hESCs and derived NPCs, neurons, trophoblasts and fibroblasts; BJ fibroblasts, astrocytes, HEK293T
T2 sequence (P28074 60-263): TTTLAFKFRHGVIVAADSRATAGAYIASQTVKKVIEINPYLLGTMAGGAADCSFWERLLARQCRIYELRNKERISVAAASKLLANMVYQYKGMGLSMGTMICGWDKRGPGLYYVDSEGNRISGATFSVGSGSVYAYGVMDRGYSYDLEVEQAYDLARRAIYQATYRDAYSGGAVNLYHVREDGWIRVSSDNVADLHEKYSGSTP
Description: 26S proteasome fluorogenic peptidase assays. In vitro assay of 26S proteasome activities was performed as previously described (Kisselev, A. F. & Goldberg, A. L., Methods in enzymology 398, 364-378 (2005)). Cells were collected in proteasome activity assay buffer (50 mM Tris-HCl (pH 7.5), 250 mM sucrose, 5 mM MgCl2, 0.5 mM EDTA, 2 mM ATP and 1 mM dithiothreitol) and lysed by passing 10 times through a 27 gauge needle attached to a 1 ml syringe. Lysate was centrifuged at 10,000 g for 10 min at 4° C. 15-25 μg of total protein of cell lysates were transferred to a 96-well microtiter plate (BD Falcon) and then the fluorogenic substrate was added to lysates. For measuring the chymotrypsin-like activity of the proteasome Applicants used either Z-Gly-Gly-Leu-AMC (Enzo) or Suc-Leu-Leu-Val-Tyr-AMC (Enzo). Applicants used Z-Leu-Leu-Glu-AMC (Enzo) to measure the caspase-like activity of the proteasome and Ac-Arg-Leu-Arg-AMC for the proteasome trypsin-like activity. Fluorescence (380-nm excitation, 460-nm emission) was monitored on a microplate fluorometer (Infinite M1000, Tecan) every 5 min for 1 h at 25° C. Protein concentration of the cell homogenates was determined using the BCA protein assay (Pierce).

[4] = test system: chymotrypsin-like activity of the proteasome; test: 26S proteasome fluorogenic peptidase assay in worm lysate, chymotrypsin-like (Z-GGL-AMC / Suc-LLVY-AMC); format: biochemical, C. elegans; details: worms at 25° C., 100 μg ml^−1 for the first three days of adulthood; FIG. 11
Description: as §1, §2

[5] = fer-15(b26);fem-1(hc17) worm lysate

proteasome activity in treated worms [4]	SMILES	chymotrypsin-like proteasome activity (Z-GGL-AMC) [1, 5]	chymotrypsin-like proteasome activity (Z-GGL-AMC) ([1]; glp-1(e2141) worm lysate)	pluripotency markers (Real Time PCR) (H9 hESCs)	sensitivity to proteasome inhibition (cell death and detachment) (hESCs)	polyubiquitinylated proteins [2]	proteasome activity in hESCs [3]
–	CC(=O)N[C@@H](CSC(=O)[C@]1([C@@H](O)C(C)C)NC(=O)[C@H](C)[C@@H]1O)C(=O)O [lactacystin]	blocked activity from extracts; also recorded: blocked chymotrypsin-like proteasome activity	blocked activity from extracts; also recorded: blocked chymotrypsin-like proteasome activity	–	–	–	–
–	CC(C)C[C@@H](C=O)NC(=O)[C@H](CC(C)C)NC(=O)[C@H](CC(C)C)NC(=O)OCc1ccccc1 [MG-132] (Cbz-Leu-Leu-Leu-aldehyde)	blocked activity from extracts; also recorded: blocked chymotrypsin-like proteasome activity	blocked activity from extracts; also recorded: blocked chymotrypsin-like proteasome activity	decreased pluripotency markers; also recorded: induces a decrease in pluripotency markers	hESCs were more sensitive to proteasome inhibition than NPCs or neurons	induces accumulation of polyubiquitinylated proteins	sufficient to reduce proteasome activity; also recorded: dramatically decreases proteasome activity
did not affect proteasome activity	O=c1[nH]c(=O)n([C@H]2C[C@H](O)[C@@H](CO)O2)cc1F [FUdR, 5-fluoro-2′ deoxyuridine]	–	–	–	–	–	–
